Like-named read-outs stand apart in the source and are kept apart here.
Key:
[1] = biological target: piglet hippocampal 5-HT4 receptors (Sus scrofa, UniProt Q6Q253); test: Binding to piglet hippocampal 5-HT4 receptors (125I-SB-207710); conditions: for pKi: inhibition of 125I-SB-207710 binding in hippocampus
5-HT4 receptor [2] = biological target: T1, 5-HT4 receptor (Cavia porcellus, UniProt O70528); test: Guinea pig colon: 5-HT-evoked contraction of longitudinal muscle-myenteric plexus preparations
T1 sequence (O70528 whole entry): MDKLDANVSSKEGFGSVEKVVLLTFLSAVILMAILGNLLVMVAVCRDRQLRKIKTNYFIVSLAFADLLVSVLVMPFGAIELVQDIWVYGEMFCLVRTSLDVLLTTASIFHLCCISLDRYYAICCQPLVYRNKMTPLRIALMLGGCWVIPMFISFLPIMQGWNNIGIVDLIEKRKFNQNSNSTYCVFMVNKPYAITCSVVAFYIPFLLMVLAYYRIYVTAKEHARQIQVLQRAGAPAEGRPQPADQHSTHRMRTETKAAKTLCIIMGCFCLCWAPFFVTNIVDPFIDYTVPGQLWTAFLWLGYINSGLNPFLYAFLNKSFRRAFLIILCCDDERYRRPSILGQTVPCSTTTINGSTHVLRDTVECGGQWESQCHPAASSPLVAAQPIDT
Protocol: (§1) In some experiments, this tissue was dosed alternately with an approximately equi-effective concentration of the nicotine receptor stimulant, dimethylphenylpiperazinium (DMPP).

nicotine receptor = test: Guinea pig colon: DMPP-evoked contraction (nicotinic receptor agonist); conditions: 10^-5 M
Protocol: as §1

5-HT4 receptor [3] = biological target: 5-HT4 receptor (Sus scrofa, UniProt Q6Q253); test: Piglet atria spontaneous beating screen
Sequence of 5-HT4 receptor (Sus scrofa, UniProt Q6Q253) (Q6Q253 1-402): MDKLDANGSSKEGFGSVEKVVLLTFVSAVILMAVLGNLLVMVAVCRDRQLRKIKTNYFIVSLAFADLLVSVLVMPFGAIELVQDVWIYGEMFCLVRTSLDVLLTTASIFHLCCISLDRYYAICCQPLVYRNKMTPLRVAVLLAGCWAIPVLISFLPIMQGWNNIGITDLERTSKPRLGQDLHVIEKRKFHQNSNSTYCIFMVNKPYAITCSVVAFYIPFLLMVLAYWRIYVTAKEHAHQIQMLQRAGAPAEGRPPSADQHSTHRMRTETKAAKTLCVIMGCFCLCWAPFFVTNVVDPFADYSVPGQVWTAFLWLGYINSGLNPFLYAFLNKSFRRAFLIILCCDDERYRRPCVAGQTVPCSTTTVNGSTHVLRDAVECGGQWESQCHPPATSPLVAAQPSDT
Protocol: Compounds are tested in the piglet atria spontaneous beating screen (Naunyn-Schmiedeberg's Arch. Pharmacol 342, 619-622).

5-HT4 receptor [4] = biological target: T2, 5-HT4 receptor (Rattus norvegicus, UniProt Q62758); test: Rat oesophagus: relaxation of carbachol-contracted tunica muscularis mucosae
T2 construct: The inner smooth muscle tube of the muscularis mucosae is isolated; from tissue; host or cells: rat oesophageal tunica muscularis mucosae
T2 sequence (Q62758 whole entry): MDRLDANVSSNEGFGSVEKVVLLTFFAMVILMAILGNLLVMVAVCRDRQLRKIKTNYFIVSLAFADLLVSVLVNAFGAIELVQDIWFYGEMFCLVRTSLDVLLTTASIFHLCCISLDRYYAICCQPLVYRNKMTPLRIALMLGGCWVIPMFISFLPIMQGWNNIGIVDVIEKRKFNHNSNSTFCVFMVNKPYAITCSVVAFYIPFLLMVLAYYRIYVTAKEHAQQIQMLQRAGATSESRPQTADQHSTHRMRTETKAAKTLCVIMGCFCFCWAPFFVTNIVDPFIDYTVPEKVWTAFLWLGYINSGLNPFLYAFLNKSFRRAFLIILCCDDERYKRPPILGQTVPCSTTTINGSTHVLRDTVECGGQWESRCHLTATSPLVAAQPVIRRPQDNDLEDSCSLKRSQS
Description: Rat oesophageal tunica muscularis mucosae is set up according to Baxter et. al. Naunyn-Schmiedeberg's Arch. Pharmacol., 343, 439-446 (1991). […] In contrast to the guinea-pig colon model, where the 5-HT4 receptor is neuronally-located, the receptor here is located on the smooth muscle.

5-HT1D = test: Receptor binding studies: 5-HT1D
Alpha1 = test: Receptor binding studies: Alpha1
[5] = system: 5-HT-induced gastric motility; test: 5-HT-induced motility in dog gastric pouch; format: in vivo; conditions: for ED50: Canis lupus familiaris, read-out: ID50 (contractile response to 5-HT)
Protocol: 4) 5-HT-Induced Motility in Dog Gastric Pouch
Compounds are tested for inhibition in the in vivo method described in "Stimulation of canine motility by BRL 24924, a new gastric prokinetic agent", Bermudez et al, J. Gastrointestinal Motility, 1990, 2(4), 281-286.
Dogs with previously prepared Heidenhain gastric pouches are fasted overnight.

5-HT4 receptors = test: Antagonism of 5-HT-evoked tachycardia in anaesthetised piglets; format: in vivo, piglet
Protocol: 5) Antagonism in Anaesthetised Piglets
In these experiments, antagonism is assessed against the 5-HT-evoked tachycardia, a response that is mediated by the 5-HT4 receptors. All experiments were in 2-5 day old piglets in which the vagi were sectioned.

5-HT4 receptor [6] = biological target: T1, 5-HT4 receptor; test: Distension-evoked peristalsis in guinea pig isolated ileum; conditions: 5-HT 10^-7 M
Protocol: 1) Distension-Evoked Peristalsis in Guinea Pig Isolated Ileum
The oral end was connected to a Krebs-filled reservoir and the aboral end to a vertical column open to the air. The intraluminal filling pressure (oral end) and peristaltic pressure (aboral end) were monitored. The threshold pressure for peristalsis was determined by raising the reservoir at increments of 0.5 cm H2 O at 1 min intervals until peristalsis occurred.

[7] = system: large bowel motility and fluid secretion; test: Faecal pellet output and fluid content in conscious fed mice (normal and 5-HTP-treated); format: in vivo, mouse
Description: 2) Antagonism in Conscious Fed Mice
A model was developed to examine the effect of 5-HT4 receptor antagonists on large bowel motility (faecal pellet output, FPO) and fluid secretion (pellet wet/dry weight) during `fed` conditions. The antagonists are studied in normal mice (to determine adverse effects, eg constipation)and in mice with functional diarrhoea caused by 5-HTP [Banner S E, Smith M I, Bywater D and Sanger G J (1993), Br J Pharmacol, 110, 17 P, and Banner S E, Smith M I and Sanger G J (1993) Br J Pharmacol; 110, 135 P]. Faecal pellets were collected at 10 min intervals so that their number and wet/dry weights could be determined.

anxiolytic activity = test: Social interaction test in rats; format: in vivo, rat; conditions: 0.01, 1, 10 mg.kg^-1
Protocol: IN VIVO TESTING FOR ANXIOLYTIC ACTIVITY
Social Interaction Test in Rats
Rats (male, Sprague Dawleys, Charles River, 250-300 g) are housed in groups of eight in a holding room for 5 days. They are then housed singly in a room adjacent to the experimental room for 4 days prior to the experimental day. On the experimental day rats are administered vehicle, test compound or a benzodiazepine anxiolytic, chlordiazepoxide, p.o. in pairs (n=8-16), at 15 minute intervals beginning at 10.00 a.m. […] The box is made of white perspex 54 cm×37 cm×26 cm with a transparent perspex front side and no lid. The floor is divided up into 24 squares and the box is brightly lit (115 lux). Active social interactive behaviours (grooming, sniffing, climbing over or under, following, biting, mounting and boxing) are scored blind for the next 15 min by remote video monitoring to give total interaction scores. The number of squares crossed by each rat is also scored and summed. After the end of each test the box is carefully wiped.

5-HT4 receptor [8] = biological target: T1, 5-HT4 receptor
Protocol: Male guinea-pigs, weighing 250-400 g are used. Longitudinal muscle-myenteric plexus preparations, approximately 3 cm long, are obtained from the distal colon region. These are suspended under a 0.5 g load in isolated tissue baths containing Krebs solution bubbled with 5% CO2 in O2 and maintained at 37° C. In all experiments, the Krebs solution also contains methiothepin 10^-7 M and granisetron 10^-6 M to block effects at 5-HT1, 5-HT2 and 5-HT3 receptors.

Sequence of piglet hippocampal 5-HT4 receptors (Q6Q253 1-402): as the sequence (Q6Q253 1-402) above

SMILES: CN1C2CCCC1CC(NC(=O)c1nn(C)c3ccccc13)C2 (stereo not shown) [granisetron]
- pKi [1]: below 5

SMILES: O=C(OCC1CCN2CCCCC2C1)c1c2n(c3ccccc13)CCCO2 (stereo not shown) [E2, eq-Quinolizidin-2-ylmethyl-3,4-dihydro-2 H-[1,3]oxazino[3,2-a]indole-10-Carboxylate]
- 5-HT4 receptor antagonist activity (in words) (5-HT4 receptor [2]; Y is O): particularly good activity

SMILES: CCCCN1CCC(CNC(=O)c2c3n(c4ccc(F)cc24)CCCO3)CC1 [E28, N-[(1-^n Butyl-4-piperidyl)methyl] 8-fluoro-3,4-dihydro-2 H-[1,3]oxazino[3,2-a]indole-10-Carboxamide]
- 5-HT4 receptor antagonist activity (in words) (5-HT4 receptor [2]; Y is NH): particularly good activity

SMILES: CCCCN1CCC(CNC(=O)c2c3n(c4ccccc24)CCCO3)CC1 [E3, N-[(1-^n Butyl-4-piperidyl)methyl]-3,4-dihydro-2 H-[1,3]oxazino[3,2-a]indole-10-Carboxamide]
- 5-HT4 receptor antagonist activity (in words) (5-HT4 receptor [2]; Y is NH): particularly good activity

SMILES: CCCCN1CCC(COC(=O)c2c3n(c4ccccc24)CCCO3)CC1 [E1, (1-^n Butyl-4-piperidyl)methyl-3,4-dihydro-2 H-[1,3]oxazino[3,2-a]indole-10-Carboxylate]
- 5-HT4 receptor antagonist activity (in words) (5-HT4 receptor [2]; Y is O): particularly good activity

SMILES: CCCCN1CCC(COC(=O)c2c3n(c4ccc(F)cc24)CCCO3)CC1 [E27, (1-^n Butyl-4-piperidyl)methyl 8-fluoro-3,4-dihydro-2 H-[1,3]oxazino[3,2-a]indole-10-Carboxylate]
- 5-HT4 receptor antagonist activity (in words) (5-HT4 receptor [2]; Y is O): particularly good activity

SMILES: CCCCN1CCC(COC(=O)c2c3n(c4ccccc24)CCO3)CC1 [E6, (1-^n Butyl-4-piperidyl)methyl-2,3-dihydrooxazolo[3,2-a]indole-9-Carboxylate]
- 5-HT4 receptor antagonist activity (in words) (5-HT4 receptor [2]; Y is O): particularly good activity

SMILES: NCCc1c[nH]c2ccc(O)cc12 [5-HT, 5-hydroxytryptamine]
- pKi [1]: 6.6±0.1

SMILES: CCCCN1CCC(CNC(=O)c2c3n(c4ccccc24)CCCO3)CC1 [SB-207266-A, N-[(1-^n Butyl-4-piperidyl)methyl]-3,4-dihydro-2 H-[1,3]oxazino[3,2-a]indole-10-Carboxamide]
- Kb (5-HT4 receptor [2]): 0.0398 nM
- effect on maximum response to 5-HT (5-HT4 receptor [2]; 3×10^-8 M and above): the maximum response to 5-HT was reduced in a concentration-dependent manner
- effect on 5-HT concentration-response curve (5-HT4 receptor [2]; 10^-10-10^-8 M, n=6): parallel rightward shift of the 5-HT curve with no effect on the maximum response
- slope (pA2) (5-HT4 receptor [2]; 10^-10-10^-8 M, n=6): not significantly different from unity
- recovery time of responses to 5-HT (5-HT4 receptor [2]; at the highest concentrations (which reduce maximum 5-HT-evoked contractions), washout): ≤ 90 min
- reversibility of antagonism (5-HT4 receptor [2]; upon washout): could be reversed upon washout
- effect on DMPP-evoked contractions (nicotine receptor): unaffected
- effect on 5-HT curve (5-HT4 receptor [3]; 10^-7 M): shifted the curve to the right with an apparent reduction in the maximum response
- estimated pKb (-log10 Kb) (5-HT4 receptor [3]; n=2): 10.1
- antagonism of 5-HT response (in words) (5-HT4 receptor [4]): concentration-dependently acted as a non-surmountable antagonist and reduced the maximum response evoked by 5-HT
- Kb (5-HT4 receptor [4]; from data with the lowest effective concentration, no reliable pA2 estimate possible): ≤ 0.1 nM
- pKi [1]: 9.48±0.06
- pKd (5-HT1D): < 5.00
- pKd (Alpha1): < 5.52
- duration of action (in words) ([5]; 1 and 3 ug.kg^-1 iv): variable and apparently reversible
- duration of antagonism ([5]; 10 and 100 ug.kg^-1 iv, longer than the experiment): > 285 min
- ED50 ([5]; iv): 1.3 µg/kg
- ED50 ([5]; po): 9.6 µg/kg
- effect on basal motility ([5]; any dose, iv and po): no effect
- antagonism of 5-HT-evoked tachycardia (5-HT4 receptors; 0.1, 0.3 or 1.0 ugkg^-1 iv, n=2 each): antagonised the 5-HT-evoked tachycardia in a dose-dependent manner
- recovery from antagonism (5-HT4 receptors; 0.3, 1.0 ugkg^-1 i.v., over the duration of the experiment): incomplete
- preparations in which the sensitising effect of 5-HT was abolished (5-HT4 receptor [6]; 10^-9 M): 3/3
- tissues in which the action of 5-HT was antagonised (5-HT4 receptor [6]; 10^-10 M): 3/4
- tissues in which there was no ability to antagonise the sensitising effect of 5-HT (5-HT4 receptor [6]; 10^-11 M): 4/4
- duration of action ([7]; 100 ug.kg^-1, dosed 2.5 hours before 5-HTP): effective
- duration of action ([7]; 100 ug.kg^-1, pre-dosed 6 hours before 5-HTP): without effect
- effect on 5-HTP-evoked increase in FPO ([7]; 0.1 to 10 ug.kg^-1 s.c., 5-HTP 10 mg kg^-1 s.c.): dose-dependently prevented the 5-HTP-evoked increase in FPO
- effect on fluid secretion evoked by 5-HTP ([7]; 5-HTP 10 mg kg^-1 s.c.): prevented
- effect on watery diarrhoea caused by 5-HTP ([7]; 5-HTP 50 mg.kg^-1): reduce the watery diarrhoea
- effect on the effects of 5-HTP, oral ([7]; 10-1000 ug.kg^-1 po, 30 min prior to 5-HTP): greatly reduced the effects of 5-HTP
- effect on FPO or fluid content in normal mice ([7]; s.c. or po, not pretreated with 5-HTP): did not affect either FPO or their fluid content in normal mice
- locomotion during the test (anxiolytic activity): not accompanied by any alteration in locomotion
- total interaction scores (anxiolytic activity; 1 h after administration): Significantly increased total interaction scores
- effect on BIMU 1 concentration-response (5-HT4 receptor [8]): reduced the maximum response to BIMU 1, without causing a prior right-ward shift in the concentration-response curve

SMILES: CCCCN1CCC(COC(=O)c2cc(I)c(N)c3c2OCCO3)CC1 [SB-207710]
- Bmax ([1]; piglet hippocampal membranes, n=4): 16±3 fmol/mg protein

SMILES: O=C(NCC1CCN(CC2CCCCC2)CC1)c1c2n(c3ccccc13)CCCO2 [E23, N-[(1-Cyclohexylmethyl-4-piperidyl)methyl] 3,4-dihydro-2 H-[1,3]oxazino[3,2-a]indole-10-Carboxamide]
- 5-HT4 receptor antagonist activity (in words) (5-HT4 receptor [2]; Y is NH): particularly good activity

SMILES: CCCCN1CCC(COC(=O)c2c3n(c4ccccc24)CCCS3)CC1 [E8, (1-^n Butyl-4-piperidyl)methyl-3,4-dihydro-2 H-[1,3]thiazino[3,2-a]indole-10-Carboxylate]
- 5-HT4 receptor antagonist activity (in words) (5-HT4 receptor [2]; Y is O): particularly good activity

SMILES: NC(Cc1c[nH]c2ccc(O)cc12)C(=O)O (stereo not shown) [5-HTP, reference compound]
- effect of 5-HTP on FPO ([7]; 10 mgkg^-1 s.c.): increased FPO above control levels
- time of maximum effect of 5-HTP ([7]; 10 mgkg^-1 s.c.): 20 min
- effect of 5-HTP on faecal output ([7]; higher doses than 10 mg kg^-1 s.c.): evoked watery diarrhoea and unformed faecal output

SMILES: O=C(OCC1CCN(Cc2ccccc2)CC1)c1c2n(c3ccccc13)CCCO2 [E15, (1-Benzyl-4-piperidyl)methyl-3,4-dihydro-2 H-[1,3]oxazino[3,2-a]indole-10-Carboxylate]
- 5-HT4 receptor antagonist activity (in words) (5-HT4 receptor [2]; Y is O): particularly good activity

SMILES: O=C(NCC1CCN(Cc2ccccc2)CC1)c1c2n(c3ccccc13)CCCO2 [E20, N-[(1-Benzyl-4-piperidyl)methy] 3,4-dihydro-2 H-[1,3]oxazino[3,2-a]indole-10-Carboxamide]
- 5-HT4 receptor antagonist activity (in words) (5-HT4 receptor [2]; Y is NH): particularly good activity

SMILES: O=C(OCCN1CCCCC1)c1c2n(c3ccccc13)CCCO2 [E4, 2-(1-Piperidyl)ethyl 3,4-dihydro-2 H-[1,3]oxazino[3,2-a]indole-10-Carboxylate]
- 5-HT4 receptor antagonist activity (in words) (5-HT4 receptor [2]; Y is O): particularly good activity

SMILES: O=C(NCC1CCN(CCCOc2ccccc2)CC1)c1c2n(c3ccccc13)CCCO2 [E47, N-[(1-(3-Phenoxypropyl)-4-piperidinyl)methyl] 3,4-dihydro-2 H-[1,3]oxazino[3,2-a]indole-10-Carboxamide]
- 5-HT4 receptor antagonist activity (in words) (5-HT4 receptor [2]; Y is NH): particularly good activity

— patent publication US5852014A, “Condensed indole derivatives as 5HT4 -receptor antagonists” (SmithKline Beecham p.l.c., priority 1992, dated 1998)
